A word on the solubility: it is how much of the substance goes into solution per volume. A high value points to much dissolved substance.

What all share (assay type): physicochemical
A short description of series [1]: Evaluation of water solubility. As to conditions: PBS pH 7.4, 1% DMSO, 200 μM if completely dissolved, filtrate concentration by UHPLC; for solubility at 30 min: PBS pH 7.4 with 1% DMSO, aqueous buffer, kinetic from dmso stock. The protocol:
5 μL of a DMSO solution having a concentration of 20 mM of the above compound (hereinafter, referred to as a sample) and 495 μL of PBS having a pH of 7.4 were added and mixed in a 1.5 mL Eppendorf tube and stirred with a multi-shaker MS300 (product name, AS ONE Corporation) at 2,000 rpm for 30 minutes. The obtained mixed solution was allowed to be left for 60 minutes with light shielding and then subjected to centrifugal precipitation (12,000 rpm, 5 minutes). For the filtrate filtered using a filter having a pore diameter of […], the sample concentration was measured with Nexera UHPLC [product name, manufactured by Shimadzu Corporation, column: Shim-pack XR-ODSII] (the sample concentration is 200 μM in a case where the sample is completely dissolved) and evaluated based on the following evaluation standards.
Regarding the water solubility, a high evaluation rank is highly preferable since the hydrophilicity is high, and in the present test, it is preferable that the water solubility satisfies the evaluation rank “C” or higher from the viewpoint of practicality as the fluorescent compound.
—Evaluation Standards for Water Solubility— • A: 100 μM or more • B: 10 μM or more and less than 100 μM • C: 1 μM or more and less than 10 μM • D: Less than 1 μM, or water solubility is low and thus concentration cannot be measured.

The nature of series [2]: Evaluation of fluorescence quantum yield. As to conditions: PBS solution (pH 7.4). The protocol: A PBS solution (pH 7.4) of the above compound was evaluated according to the method described in the following reference document.
“A Guide to Recording Fluorescence Quantum Yields” (a HORIBA Scientific document, available from https://www.horiba.com/fileadmin/uploads/Scientific/Documents/Fluorescence/quantumyields trad.pdf)
Regarding the fluorescence quantum yield, a high evaluation rank is highly preferable since the fluorescence quantum yield is excellent, and in the present test, it is preferable that the fluorescence quantum yield satisfies the evaluation rank “C” or higher from the viewpoint of practicality as the fluorescent compound.
—Evaluation Standards for Fluorescence Quantum Yield— • A: 0.5 or more • B: 0.3 or more and less than 0.5 • C: 0.1 or more and less than 0.3 • D: less than 0.1 • E: not evaluable due to low water solubility

Series [3] in a line: Evaluation of maximum molar absorption coefficient. As to conditions: PBS solution (pH 7.4). The protocol:
A PBS solution (pH 7.4) of the above compound was evaluated according to the method described in the following reference document. The unit of the maximum molar absorption coefficient in the following evaluation standard is mol^−1 Lcm^−1.
“TECH TIP #6 Extinction Coefficients” (a document from Thermo Scientific, Inc., available from https://assets.thermofisher.com/TFS-Assets/LSG/Application-Notes/TR0006-Extinction-coeffi cients.pdf)
Regarding the maximum molar absorption coefficient, a high evaluation rank is highly preferable since the maximum molar absorption coefficient is excellent, and in the present test, it is preferable that the maximum molar absorption coefficient satisfies the evaluation rank “C” or higher from the viewpoint of practicality as the fluorescent compound.
—Evaluation Standard for Maximum Molar Absorption Coefficient— • A: 100,000 or more • B: 50,000 or more and less than 100,000 • C: 10,000 or more and less than 50,000 • D: less than 10,000 • E: not evaluable due to low water solubility

Series [4] is described as follows: Evaluation of light resistance. As to conditions: PBS pH 7.4, xenon lamp 22 mW/cm^2, exposure time until absorbance at absorption peak decreases by 20%. As to the method: The compound synthesized above was dissolved in a PBS solution (pH 7.4) so that the absorbance at the absorption peak wavelength was 0.095 to 0.105. In a state where this solution was exposed using a merry-go-round type light irradiator (xenon lamp UXL-500D-O manufactured by Ushio Inc., HA-50 filter, Y44 filter, exposure intensity: 22 mW/cm^2 (in terms of 500 nm)), the absorbance at the absorption peak wavelength of each compound was measured over time with a spectrometer (Agilent 8453, manufactured by Agilent Technologies, Inc.). The absorbance at the absorption peak wavelength before light exposure was set to 100% and the light exposure time until the absorbance at this absorption peak wavelength decreases by 20% (the absorbance at the absorption peak wavelength reaches 80%) was measured. The results were evaluated based on the following evaluation standards.
A high evaluation rank is highly preferable since stability is kept for a long time, and in the present test, it is preferable that the light resistance satisfies the evaluation rank “B” or higher from the viewpoint of practicality as the fluorescent compound.
—Evaluation Standards for Light Resistance— • A: 100 hours or more • B: 50 hours or more and less than 100 hours • C: 25 hours or more and less than 50 hours • D: 2 hours or more and less than 25 hours • E: Less than 2 hours • F: Not evaluable due to low water solubility

Values after ≈ are worked out from the molar mass of the structure shown.

`C=C[Si]1(C)C2=CC(=[N+](C)C)C=CC2=C(c2sc(C(=O)[O-])cc2C)c2ccc(N(C)C)cc21` (stereo not shown) [Compound (5)] yielded a solubility at 30 min in series [1] of 1 to 10 µM (≈ 0.461 to 4.61 µg/mL). For the same compound, in series [2], the Fluorescence quantum yield result is “D (less than 0.1)”. Further, the “Maximum molar absorption coefficient” value in series [3] is reported as “A (100,000 or more)”. Further, the Light resistance result in series [4] is on record as “A (100 hours or more)”.

`C=C[Si]1(C)C2=C/C(=N/C)C=CC2=C(c2c(F)cc(C(=O)O)cc2F)c2ccc(NC)cc21` (stereo not shown) [Compound (7)] came in with a solubility at 30 min in series [1] of 1 to 10 µM (≈ 0.449 to 4.49 µg/mL). The Fluorescence quantum yield entry in series [2] is “B (0.3 or more and less than 0.5)”. Besides, the “Maximum molar absorption coefficient” value in series [3] is “A (100,000 or more)”. Further, in series [4], the Light resistance result was “A (100 hours or more)”.

Turning to AlexaFluor647, the Water solubility result in series [1] is recorded as “A (100 μM or more)”. For the same compound, the Fluorescence quantum yield entry in series [2] was “B (0.3 or more and less than 0.5)”. Further, the “Maximum molar absorption coefficient” value in series [3] is reported as “A (100,000 or more)”. In series [4], the Light resistance entry was “D (2 hours or more and less than 25 hours)”.

Turning to `C=C[Si]1(C)C2=C/C(=[N+]3\CCC(F)C3)C=CC2=C(c2c(OC)cc(C(=O)[O-])cc2OC)c2ccc(N3CCC(F)C3)cc21` (stereo not shown) [Compound (14)], the solubility at 30 min in series [1] fell in the range of 1 to 10 µM (≈ 0.589 to 5.89 µg/mL). In addition, the Fluorescence quantum yield result in series [2] is reported as “A (0.5 or more)”. Besides, the “Maximum molar absorption coefficient” value in series [3] is “B (50,000 or more and less than 100,000)”.

Take `C=C[Si]1(C)C2=CC(=[N+](C)C)C=CC2=C(c2ccc(C(=O)[O-])cc2F)c2ccc(N(C)C)cc21` (stereo not shown) [Compound (2)]: the solubility at 30 min in series [1] lay in the range of 1 to 10 µM (≈ 0.459 to 4.59 µg/mL). Besides, the Fluorescence quantum yield result in series [2] was “B (0.3 or more and less than 0.5)”. For the same compound, the “Maximum molar absorption coefficient” value in series [3] is “A (100,000 or more)”. In series [4], the Light resistance entry was “A (100 hours or more)”.

The compound `C=C[Si]1(C)C2=CC(=[N+]3CC(F)C3)C=CC2=C(c2c(OC)cc(C(=O)[O-])cc2OC)c2ccc(N3CC(F)C3)cc21` (stereo not shown) [Compound (13)] yielded a solubility at 30 min in series [1] of 1 to 10 µM (≈ 0.561 to 5.61 µg/mL). Further, the Fluorescence quantum yield result in series [2] is listed as “A (0.5 or more)”. Also, the “Maximum molar absorption coefficient” value in series [3] is “B (50,000 or more and less than 100,000)”.

Turning to `C=C[Si]1(C)C2=C/C(=N/C)C=CC2=C(c2sc(C(=O)O)cc2C)c2ccc(NC)cc21` (stereo not shown) [Compound (8)], the solubility at 30 min in series [1] was 1 to 10 µM (≈ 0.433 to 4.33 µg/mL). The Fluorescence quantum yield entry in series [2] is “C (0.1 or more and less than 0.3)”. The “Maximum molar absorption coefficient” value in series [3] was “B (50,000 or more and less than 100,000)”. Further, the Light resistance entry in series [4] is listed as “A (100 hours or more)”.

`C=C[Si]1(C)C2=C/C(=[N+](\C)CC(F)(F)F)C=CC2=C(c2c(OC)cc(C(=O)[O-])cc2OC)c2ccc(N(C)CC(F)(F)F)cc21` (stereo not shown) [Compound (15)] yielded a solubility at 30 min in series [1] of 1 to 10 µM (≈ 0.637 to 6.37 µg/mL). For the same compound, in series [2], the Fluorescence quantum yield result is reported as “A (0.5 or more)” and the “Fluorescence quantum yield (comparison in words)” value was “exhibits a better fluorescence quantum yield as compared with the compound (4)”. For the same compound, the “Maximum molar absorption coefficient” value in series [3] was “C (10,000 or more and less than 50,000)”.

Regarding `C=C[Si]1(C)C2=C/C(=N/C)C=CC2=C(c2c(F)cc(C(=O)NCCOCCOCCOCCOCCC(=O)O)cc2F)c2ccc(NC)cc21` (stereo not shown) [Compound (9)], the solubility at 30 min in series [1] lay within 10 to 100 µM (≈ 6.96 to 69.6 µg/mL). The Fluorescence quantum yield result in series [2] was “B (0.3 or more and less than 0.5)”. Moreover, the “Maximum molar absorption coefficient” value in series [3] is on record as “A (100,000 or more)”. Moreover, the Light resistance entry in series [4] is listed as “A (100 hours or more)”.

In turn, `C=C[Si]1(C)C2=CC(=[N+](C)C)C=CC2=C(c2c(OC)cc(C(=O)[O-])cc2OC)c2ccc(N(C)C)cc21` (stereo not shown) [Compound (4)] came in with a solubility at 30 min in series [1] of 1 to 10 µM (≈ 0.501 to 5.01 µg/mL). The Fluorescence quantum yield entry in series [2] was “B (0.3 or more and less than 0.5)”. For the same compound, the “Maximum molar absorption coefficient” value in series [3] is given as “A (100,000 or more)”. For the same compound, the Light resistance result in series [4] is on record as “A (100 hours or more)”.

As to `C=C[Si]1(C)C2=CC(=[N+]3CCS(=O)(=O)CC3)C=CC2=C(c2c(F)cc(C(=O)[O-])cc2F)c2ccc(N3CCS(=O)(=O)CC3)cc21` (stereo not shown) [Compound (6)], the solubility at 30 min in series [1] lay in the range of 1 to 10 µM (≈ 0.657 to 6.57 µg/mL). Besides, in series [2], the Fluorescence quantum yield result is “B (0.3 or more and less than 0.5)”; the “Fluorescence quantum yield (comparison in words)” value is “exhibits a better fluorescence quantum yield as compared with the compound (1)”. Further, the “Maximum molar absorption coefficient” value in series [3] is recorded as “A (100,000 or more)”. Moreover, the Light resistance result in series [4] is “A (100 hours or more)”.
